Assays:
[1] = molecular target: CB2-M293^7.47T&S47^1.46T (Homo sapiens, UniProt P34972, M293T/S47T); assay: GloSensor cAMP assay, CB2 double mutant; assay type: cell-based
[2] = test system: CB1^ECL2/CB2^other; assay: GloSensor cAMP assay, chimeric construct; assay type: cell-based, human; conditions: vs wild-type CB2
[3] = molecular target: CB1 D176^2.63N (Homo sapiens, UniProt P21554, D176N)
[4] = test system: CB2^ECL2/CB1^other; assay: GloSensor cAMP assay, chimeric construct; assay type: cell-based, human; conditions: vs wild-type CB1

Chain of CB2-M293^7.47T&S47^1.46T (P34972 whole entry S47T/M293T): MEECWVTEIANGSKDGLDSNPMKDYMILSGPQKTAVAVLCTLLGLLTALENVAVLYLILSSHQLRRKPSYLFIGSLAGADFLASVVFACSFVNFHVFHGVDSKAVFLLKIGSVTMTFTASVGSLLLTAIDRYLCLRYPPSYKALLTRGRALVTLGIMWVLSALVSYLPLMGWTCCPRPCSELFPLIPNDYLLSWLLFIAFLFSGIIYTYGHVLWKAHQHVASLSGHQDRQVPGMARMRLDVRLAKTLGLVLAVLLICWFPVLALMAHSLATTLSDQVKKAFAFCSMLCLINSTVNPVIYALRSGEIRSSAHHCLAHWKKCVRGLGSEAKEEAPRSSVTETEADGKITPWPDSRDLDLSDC
Chain of CB1 D176^2.63N (P21554 whole entry D176N): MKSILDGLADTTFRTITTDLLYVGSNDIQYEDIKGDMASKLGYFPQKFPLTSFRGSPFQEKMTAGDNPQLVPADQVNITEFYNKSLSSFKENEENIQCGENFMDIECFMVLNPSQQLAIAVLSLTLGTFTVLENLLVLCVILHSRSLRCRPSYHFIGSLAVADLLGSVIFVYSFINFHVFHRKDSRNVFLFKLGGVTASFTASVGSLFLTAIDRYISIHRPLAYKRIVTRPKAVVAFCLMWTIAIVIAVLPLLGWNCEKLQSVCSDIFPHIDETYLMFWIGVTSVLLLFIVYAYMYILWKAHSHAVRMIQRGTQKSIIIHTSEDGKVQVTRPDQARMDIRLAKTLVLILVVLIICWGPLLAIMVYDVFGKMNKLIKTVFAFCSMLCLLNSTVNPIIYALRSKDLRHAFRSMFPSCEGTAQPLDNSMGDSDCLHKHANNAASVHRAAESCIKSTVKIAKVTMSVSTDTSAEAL

CCCCCCC(C)(C)c1ccc([C@@H]2C[C@H](O)CC[C@H]2CCCO)c(O)c1 [CP55,940]
activity vs wild-type CB2 [1]: remained essentially unchanged
effect of ECL2 replacement on EC50 [2]: no effect on the EC50
activity vs wild-type CB1 [3]: significantly reduces the activity
activation of CB1 receptor containing the CB2 ECL2 loop [4]: same potency as wild-type CB1

— PMC11287286 (Proceedings of the National Academy of Sciences of the …, 2024)
